Measurements as given in patent publication US20130089591A1, “Compositions” (Givaudan SA, priority 2010, published 2013).

Key:
[1] = Water solubility of the aldehyde
[2] = Aggregation of polyurea capsules, Method 5.6; format: physicochemical; parameters: key: ∘: no aggregation of the capsules; +: aggregation of few capsules together only visible under microscopy; ++: aggregates of mm size; +++: important aggregation; ++++: aggregation is such that a cake is obtained; details: polyurea Method 5.6, phase A of Table 1; for Encapsulation, No precursor (scale of aggregation): free aldehyde as phase B; for Encapsulation, With precursor (scale of aggregation): precursor (Method 1.1) as phase B
Experimental: An oil phase was prepared when Desmodur VL R20 (Bayer) was added in perfume oil at a level of 2.5%.
An aqueous phase (Solution S1) was prepared when Mowiol 4-88 (Kururay) was added in water, at a level of 0.1%.
An aqueous phase (Solution S2) was prepared when diethylentriamine (Merck) was added in water, at a level of 2%.
100 g of oil phase was mixed with 250 g of solution S1, to form an oil-in-water emulsion, in a 500 mL vessel equipped with a propeller operating at 1000 rpm.
After 10 min of stirring, 50 g of solution S2 was added.
The slurry was stirred for 4 h at room temperature.
The Method 5.6 of Example 5 was applied to encapsulate different perfume oils described as phase A (non aldehyde raw materials) and phase B (aldehyde raw materials).
The composition of Phase A is described in Table 1. Phase B is an aldehyde perfume molecule used as such or as its precursor form prepared according to Method 1.1.
According to the aspect of the slurry a scale of aggregation has been defined as follow: […]
(§1) ∘ no aggregation of the capsules + aggregation of few capsules together only visible under microscopy ++ aggregates of mm size +++ important aggregation ++++ aggregation is such that a cake is obtained

[3] = Aggregation of polyamide capsules (Example 2 method); format: physicochemical; parameters: key to Encapsulation, No precursor (scale of aggregation) / Encapsulation, With precursor (scale of aggregation): ∘: no aggregation of the capsules; +: aggregation of few capsules together only visible under microscopy; ++: aggregates of mm size; +++: important aggregation; ++++: aggregation is such that a cake is obtained; details: for Encapsulation, No precursor (scale of aggregation): free aldehyde as phase B at 5% in phase A of Table 1; for Encapsulation, With precursor (scale of aggregation): precursor of the aldehyde (Method 1.1) as phase B at 5% in phase A of Table 1
Experimental: An oil phase was prepared by dissolving isophtahaloyl dichloride (Fluka) in oil (oil composition specified in the examples below) at a level of 10%
An aqueous solution (Solution S1) was prepared by dissolving a polyvinyl alcohol Mowiol 4-88 (Kuru ray) in water at a level of 1%.
An aqueous solution (Solution S2) was prepared when triethylentetraamine (Hunstman) was diluted in water at a level of 3%.
100 g of the oil phase was mixed with 450 g of solution S1 to form an oil-in-water emulsion in a 1 L reactor equipped with a MIG stirrer operating at 1000 rpm. After 5 minutes of mixing, 450 g of solution S2 was slowly added. The resultant slurry of polyamide capsules was kept under stirring for 2 H.
Two capsule populations were formed. A first encapsulating IPM (isopropyl myristate) and a second containing IPM+5% of ethyl vaniline. The capsules were made according to the method of Example 2.
The methodology of Example 2 was applied to encapsulate different perfume oils described as phase A (non aldehyde raw materials) and phase B (aldehyde raw materials).
The phase B was added at 5% to the phase A prior to encapsulation. Different compositions of phase B have been used corresponding each time to a single aldehyde perfume molecule or to its precursor formed according to the methodology of Method 1.1, above.
According to the condition of the slurry a scale of aggregation has been defined as follows: […]
as §1

[4] = Aggregation of polyurea capsules, Method 5.5; format: physicochemical; parameters: key: ∘: no aggregation of the capsules; +: aggregation of few capsules together only visible under microscopy; ++: aggregates of mm size; +++: important aggregation; ++++: aggregation is such that a cake is obtained; details: polyurea Method 5.5, phase A of Table 1; for Encapsulation, No precursor (scale of aggregation): free aldehyde as phase B; for Encapsulation, With precursor (scale of aggregation): precursor (Method 1.1) as phase B
Experimental: An oil phase was prepared when Desmodur W and Desmodur N3300 (Bayer) were added in perfume oil at a level of 2.2% and 13% respectively.
An aqueous phase (Solution S1) was prepared when Gantrez AN119 (ISP) was added to water, at a level of 1.6%. The solution was heated at 70° C. for 10 min to disperse the polymer.
An aqueous phase (Solution S2) was prepared when Ethylene diamine (Merck) was added to water, at a level of 7.5%.
30 g of the oil phase was mixed with 80 g of solution S1, to form an oil-in-water emulsion, in a 250 mL vessel equipped with a propeller operating at 1000 rpm.
After 10 min of stirring, 20 g of solution S2 was added.
The slurry was stirred for 30 min at room temperature, then heated to 60° C. and stirred for 3 H at 60° C. before cooling.
The Method 5.5 of Example 5 was applied to encapsulate different perfume oils described as phase A (non aldehyde raw materials) and phase B (aldehyde raw materials).
The composition of Phase A was described in Table 1 above. Phase B is an aldehyde perfume molecule used as such or as its precursor form prepared according to Method 1.1.
According to the aspect of the slurry a scale of aggregation was defined as follow: […]
as §1
Phase B was added at a level of 20% of aldehyde in phase A.

[5] = Aggregation of polyurea capsules, Method 5.1; format: physicochemical; details: for Encapsulation (aggregation): free aldehyde at 5% in IPM
Experimental: An oil phase was prepared by adding Desmodur W (Isocyanate from Bayer) to a perfume oil at a level of 16.6%.
An aqueous phase (solution S1) was prepared by adding Luviskol k90 (BASF) to water, at a level of 4.5%. The pH of the solution was adjusted to 11.5 by addition of NaOH at 10%.
An aqueous phase (Solution S2) was prepared when Lupasol PR8515 (BASF) was added to water, at a level of 10%.
300 g of the oil phase was mixed with 500 g of solution S1, to form an oil-in-water emulsion, in a 1 L reactor equipped with a MIG stirrer operating at 1000 rpm.
After 30 minutes of mixing, 200 g of solution S2 was added over a period of 1 minute.
After 30 minutes, the slurry was heated up to 70° C. (1 H), then kept for 2 H at 70° C., then heated to 80° C. and kept for 1 H at 80° C., then heated to 85° C. and kept for 1 H at 85° C., then cooled to 70° C. and kept for 1 H at 70° C. before final cooling at 25° C.
The Method 5.1 of Example 5 was applied to encapsulate different perfume oils described as phase A (non aldehyde raw materials) and phase B (aldehyde raw materials).
In the following trials, phase A was IPM and phase B was aldehyde perfume molecules. Phase B was added at a level of 5% in phase A.
Phase B contains aldehyde C11 iso or the corresponding precursor prepared according to Method 1.1.
Phase B was added at a level of 5% in phase A.

Compound | Water solubility ([1]; Table of Example 13) [ppm] | Encapsulation, No precursor (scale of aggregation) [2] | Encapsulation, With precursor (scale of aggregation) [2] | other results
O=C/C=C/c1ccccc1 [Cinnamic ald] | 1900 | + | ∘ | –
CCCCCC/C(C=O)=C\c1ccccc1 [Hexyl cinnamic ald] | 2 | + | ∘ | –
CC1(C)C2CC=C(CCC=O)C1C2 (stereo not drawn) [Pino acetaldehyde] | 86 | ++++ | ∘ | –
CC(C)=CCCC(C)C=O (stereo not drawn) [Melonal, 2,6-dimethyl-5-heptenal] | 344 | ++++ | ∘ | –
CC(CC=O)CC(C)(C)C (stereo not drawn) [Ald C9 isononylic] | 160 | +++ | ∘ | –
CC1(C)CCCC2=C1CC(C=O)CC2 (stereo not drawn) [Cyclomyral] | – | ∘ | ∘ | –
CCCCCCCCCC(C)C=O (stereo not drawn) [Aldehyde C12 mna] | – | ∘ | ∘ | Encapsulation, No precursor (scale of aggregation) [3]: ++; Encapsulation, With precursor (scale of aggregation) [3]: ∘; Encapsulation, No precursor (scale of aggregation) [4]: ∘; Encapsulation, With precursor (scale of aggregation) [4]: ∘
CC(C=O)c1ccccc1 (stereo not drawn) [Hydratropic ald] | 650 | + | + | –
CC(C)c1ccc(C=O)cc1 [Cuminic ald] | 280 | ++ | ∘ | –
COc1ccc(C=O)cc1 [Aubepine para cresol] | – | – | – | Encapsulation, No precursor (scale of aggregation) [3]: ++; Encapsulation, With precursor (scale of aggregation) [3]: ∘; Water solubility ([1]; Table 2): 6 ppm
CCCCCCCCCCCC=O [Aldehyde C12 laurique] | – | ++++ | ∘ | Encapsulation (aggregation) [5]: Aggregation; Encapsulation, No precursor (scale of aggregation) [3]: +++; Encapsulation, With precursor (scale of aggregation) [3]: ∘; Encapsulation, No precursor (scale of aggregation) [4]: ++; Encapsulation, With precursor (scale of aggregation) [4]: ∘
Aldehyde iso C11 | – | – | – | Slurry aspect ([5]; phase B at 5% in phase A of Table 4, listed as Aldehyde C11 iso): Cake; Slurry aspect ([5]; phase B at 5% in phase A of Table 4, listed as aldehyde C11 iso): aggregate; Encapsulation, No precursor (scale of aggregation) [3]: +++; Encapsulation, With precursor (scale of aggregation) [3]: +; Water solubility ([1]; Table 2): 30 ppm
CCCCCC=O [Capronaldehyde (hexanal)] | – | ++++ | ∘ | –
CC(CC=O)CCc1ccccc1 (stereo not drawn) [Mefranal] | 100 | ∘ | ∘ | –
CCOc1cc(C=O)ccc1O [ethyl vaniline] | – | – | – | Aggregation, microscopic examination ([3]; IPM + 5% aldehyde): significant aggregation
CC(C)c1cccc(C(C)CC=O)c1 (stereo not drawn) [Florhydral] | – | – | – | Encapsulation (aggregation) [5]: Aggregation; Water solubility ([1]; Table 3): 51 ppm
COC1CC2CC1C1CC(C=O)CC21 (stereo not drawn) [Scentenal] | – | ++ | ∘ | –
CCCCCCCCCC=O [Aldehyde C10] | 61 | ++++ | ∘ | Encapsulation (aggregation) [5]: Aggregation; Encapsulation, No precursor (scale of aggregation) [3]: +++; Encapsulation, With precursor (scale of aggregation) [3]: +; Water solubility ([1]; Table 2): 61 ppm; Water solubility ([1]; Table 3): 61 ppm; Water solubility ([1]; Table of Example 11): 61 ppm; Encapsulation, No precursor (scale of aggregation) [4]: +++; Encapsulation, With precursor (scale of aggregation) [4]: ∘
CC(C)(O)CCCC1=CCC(C=O)CC1 (stereo not drawn) [Cyclohexal] | – | ∘ | ∘ | –
C/C(C=O)=C\c1ccccc1 [Methyl cinnamic ald] | 580 | ∘ | ∘ | –
CC(CC=O)CCCC(C)(C)O (stereo not drawn) [Hydroxycitronellal] | 1800 | +++ | ∘ | Encapsulation (aggregation) [5]: Aggregation; Water solubility ([1]; Table 3): 1800 ppm; Water solubility ([1]; Table of Example 11): 1800 ppm; Encapsulation, No precursor (scale of aggregation) [4]: ++++; Encapsulation, With precursor (scale of aggregation) [4]: ∘
